Results: publication PMC10468883, “Synthesis and Anticancer Activities of Pyrazole–Thiadiazole-Based EGFR Inhibitors” (ACS Omega, 2023)

Assays:
A549 cell line = test: MTT cytotoxicity assay (24 h), A549 cell line; assay type: cell-based; conditions: for SI for A549: selectivity index, NIH3T3 vs A549
Procedure: Thanks to this color change, the cell viability rate can be determined spectrometrically.[33]Table 1 presents the results of the MTT experiment performed with the 24 h procedure using two cancer lines (A549 and MCF-7) and a healthy cell line (NIH3T3). Doxorubicin is used as a reference drug. MTT assays were performed as previously described.[34]−[36] Cytotoxicity assays of compounds 6a–6j were performed with the 24 h MTT procedure. […] These compounds include allyl (6d), phenyl (6g), and 4-chlorophenyl (6j) moieties. […] The selectivity indexes of compounds 6d, 6g, and 6j were calculated as 2.3, 7.23, and 5.68, respectively. […] It can be predicted that the side effect and toxic effect profile of compound 6g will be less than that of compounds 6d and 6j.

MCF-7 cell line = test: MTT cytotoxicity assay (24 h), MCF-7 cell line; assay type: cell-based; conditions: for IC50: MTT, 24 h, MCF-7 cell line, means of quartet assays; for SI for MCF-7: selectivity index, NIH3T3 vs MCF-7
Procedure: (§1) The principle of the MTT test used to determine the metabolic activity of living cells is based on the reduction of […] 3-(4,5-dimethylthiazol-2-yl)-2,5 diphenyltetrazolium salt to the purple-colored formazan product. Thanks to this color change, the cell viability rate can be determined spectrometrically.[33]Table 1 presents the results of the MTT experiment performed with the 24 h procedure using two cancer lines (A549 and MCF-7) and a healthy cell line (NIH3T3). Doxorubicin is used as a reference drug. MTT assays were performed as previously described.[34]−[36]
(§2) Cytotoxicity assays of compounds 6a–6j were performed with the 24 h MTT procedure. […]. […] […]. […] The selectivity indexes of compounds 6d, 6g, and 6j were calculated as 2.3, 7.23, and 5.68, respectively. […] It can be predicted that the side effect and toxic effect profile of compound 6g will be less than that of compounds 6d and 6j.

NIH3T3 healthy cell line = test: MTT cytotoxicity assay (24 h), healthy cell line NIH3T3; assay type: cell-based; conditions: means of quartet assays
Procedure: as §1, §2

A549 cells = test: Mitochondrial membrane potential (MMP) by flow cytometry, JC-1 dye; assay type: cell-based; conditions: substance at IC50 concentration, 24 h incubation
Procedure: In the first step, A549 cells seeded in 25 mL flasks were incubated for 24 h in a 5% CO2 incubator. […] Cells were collected and centrifuged in line with the instructions in the kit at the conclusion of this period. The upper part was removed, JC-1 dye was added, and the mixture was incubated for 10–15 min at 37 °C. The CytoFLEX flow cytometer (Beckman Coulter Life Sciences, USA) and CytExpert for CytoFLEX Acquisition and Analysis Software Version 2.2.0.97 were used to read it after two washings with washing solution at the conclusion of the period.
Both the inhibitory compound and the reference drug were administered at IC50 concentrations. After a 24 h incubation period (5% CO2), mitochondrial membrane potential was determined by flow cytometry using JC-1 dye.

EGFR enzyme = molecular target: T1, EGFR enzyme (Homo sapiens, UniProt P00533); test: EGFR Kinase Assay Kit inhibition assay; assay type: biochemical; conditions: in vitro kit method
T1 construct: purchased
Procedure: The EGFR Kinase Assay Kit (available from ref ([38])) was used for the EGFR inhibition. The kit protocol was followed, and the experiment was carried out in vitro.
EGFR kinase, which belongs to the ErbB family of tyrosine kinases, is known to regulate the signaling pathways of cell survival, migration, proliferation, differentiation, and adhesion.[52] Inhibition of this member of the tyrosine kinase family, which is a new approach in cancer chemotherapy, is important.

[1] = Homo sapiens, A549, 24 h, MTT, 24 h, A549 cell line, means of quartet assays
[2] = MTT, 24 h, A549 cell line, means of quartet assays

T1 sequence (P00533 25-1210): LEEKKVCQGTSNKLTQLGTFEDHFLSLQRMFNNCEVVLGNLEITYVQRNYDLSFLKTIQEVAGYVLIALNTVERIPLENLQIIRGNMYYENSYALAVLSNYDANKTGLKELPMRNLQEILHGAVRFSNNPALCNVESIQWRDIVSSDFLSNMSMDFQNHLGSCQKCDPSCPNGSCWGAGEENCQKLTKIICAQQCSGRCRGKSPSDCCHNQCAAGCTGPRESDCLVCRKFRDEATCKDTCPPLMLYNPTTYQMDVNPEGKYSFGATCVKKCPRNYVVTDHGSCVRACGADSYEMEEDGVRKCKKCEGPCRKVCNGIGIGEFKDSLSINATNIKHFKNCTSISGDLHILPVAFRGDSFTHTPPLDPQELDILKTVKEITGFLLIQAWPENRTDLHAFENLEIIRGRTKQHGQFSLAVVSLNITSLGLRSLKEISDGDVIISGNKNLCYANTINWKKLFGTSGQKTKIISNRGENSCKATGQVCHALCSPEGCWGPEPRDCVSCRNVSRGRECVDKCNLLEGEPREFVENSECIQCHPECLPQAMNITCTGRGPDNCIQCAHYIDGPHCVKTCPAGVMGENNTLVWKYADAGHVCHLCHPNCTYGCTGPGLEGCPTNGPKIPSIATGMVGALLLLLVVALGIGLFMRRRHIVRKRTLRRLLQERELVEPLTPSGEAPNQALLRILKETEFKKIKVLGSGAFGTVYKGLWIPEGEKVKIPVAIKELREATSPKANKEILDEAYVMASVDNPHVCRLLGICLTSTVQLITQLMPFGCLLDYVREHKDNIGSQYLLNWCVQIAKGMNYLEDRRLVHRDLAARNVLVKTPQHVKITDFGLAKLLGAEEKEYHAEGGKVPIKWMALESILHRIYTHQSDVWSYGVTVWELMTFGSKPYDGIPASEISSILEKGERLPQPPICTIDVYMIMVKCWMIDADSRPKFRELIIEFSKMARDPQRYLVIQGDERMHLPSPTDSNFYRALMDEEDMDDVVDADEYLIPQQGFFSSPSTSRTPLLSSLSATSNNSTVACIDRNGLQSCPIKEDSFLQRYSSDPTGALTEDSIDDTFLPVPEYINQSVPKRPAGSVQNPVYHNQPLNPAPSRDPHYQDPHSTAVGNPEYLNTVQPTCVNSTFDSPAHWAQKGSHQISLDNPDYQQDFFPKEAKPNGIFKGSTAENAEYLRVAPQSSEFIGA

| Compound | IC50 (A549 cell line; [1]) | SI for A549 (A549 cell line) | IC50 (MCF-7 cell line; Homo sapiens, MCF7, 24 h) | SI for MCF-7 (MCF-7 cell line) | IC50 (NIH3T3 healthy cell line; Mus musculus, NIH3T3, 24 h) | IC50 (A549 cell line; [2]) | IC50 (MCF-7 cell line) | IC50 (NIH3T3 healthy cell line) | IC50 A549 (A549 cell line; [2]) | mitochondrial membrane potential (P3) (A549 cells) | IC50 (EGFR enzyme) |
| --- | --- | --- | --- | --- | --- | --- | --- | --- | --- | --- | --- |
| CCNc1nnc(SCC(=O)N2N=C(c3ccccc3)CC2c2ccc([N+](=O)[O-])cc2)s1 (stereo not drawn) [Compound 6a, 2-((5-(Ethylamino)-1,3,4-thiadiazol-2-yl)thio)-1-(5-(4-nitrophenyl)-3-phenyl-4,5-dihydro-1H-pyrazol-1-yl)ethan-1-one] | 13.9 ± 0.25 µM | 6.24 | > 100 µM | <0.87 | 86.7 ± 4.07 µM | – | – | – | – | – | – |
| CCCNc1nnc(SCC(=O)N2N=C(c3ccccc3)CC2c2ccc([N+](=O)[O-])cc2)s1 (stereo not drawn) [Compound 6b, 1-(5-(4-Nitrophenyl)-3-phenyl-4,5-dihydro-1H-pyrazol-1-yl)-2-((5-(propylamino)-1,3,4-thiadiazol-2-yl)thio)ethan-1-one] | 15.8 ± 0.75 µM | – | 63.4 ± 2.09 µM | – | 47.2 ± 4.53 µM | – | – | – | – | – | – |
| CC(C)Nc1nnc(SCC(=O)N2N=C(c3ccccc3)CC2c2ccc([N+](=O)[O-])cc2)s1 (stereo not drawn) [Compound 6c, 2-((5-(Isopropylamino)-1,3,4-thiadiazol-2-yl)thio)-1-(5-(4-nitrophenyl)-3-phenyl-4,5-dihydro-1H-pyrazol-1-yl)ethan-1-one] | 27.9 ± 1.28 µM | 1.19 | > 100 µM | <0.33 | 33.2 ± 2.37 µM | – | – | – | – | – | – |
| C=CCNc1nnc(SCC(=O)N2N=C(c3ccccc3)CC2c2ccc([N+](=O)[O-])cc2)s1 (stereo not drawn) [Compound 6d, 2-((5-(Allylamino)-1,3,4-thiadiazol-2-yl)thio)-1-(5-(4-nitrophenyl)-3-phenyl-4,5-dihydro-1H-pyrazol-1-yl)ethan-1-one] | 5.18 ± 0.164 µM | 2.3 | 35.7 ± 2.24 µM | 0.33 | 11.9 ± 0.486 µM | 5.18 ± 0.16 µM | 35.7 ± 2.24 µM | 11.9 ± 0.49 µM | – | – | – |
| O=C(CSc1nnc(NC2CCCCC2)s1)N1N=C(c2ccccc2)CC1c1ccc([N+](=O)[O-])cc1 (stereo not drawn) [Compound 6f, 2-((5-(Cyclohexylamino)-1,3,4-thiadiazol-2-yl)thio)-1-(5-(4-nitrophenyl)-3-phenyl-4,5-dihydro-1H-pyrazol-1-yl)ethan-1-one] | > 100 µM | <0.61 | > 100 µM | <0.61 | 60.5 ± 3.72 µM | – | – | – | no activity | – | – |
| O=C(CSc1nnc(Nc2ccccc2)s1)N1N=C(c2ccccc2)CC1c1ccc([N+](=O)[O-])cc1 (stereo not drawn) [Compound 6g, 1-(5-(4-Nitrophenyl)-3-phenyl-4,5-dihydro-1H-pyrazol-1-yl)-2-((5-(phenylamino)-1,3,4-thiadiazol-2-yl)thio)ethan-1-one] | – | 7.22 | 15.93 ± 0.054 µM | 0.70 | 11.1 ± 0.205 µM | – | 15.93 ± 0.05 µM | 11.1 ± 0.21 µM | – | 80.93% | 0.024 ± 0.002 µM |
| Cc1ccc(Nc2nnc(SCC(=O)N3N=C(c4ccccc4)CC3c3ccc([N+](=O)[O-])cc3)s2)cc1 (stereo not drawn) [Compound 6h, 1-(5-(4-Nitrophenyl)-3-phenyl-4,5-dihydro-1H-pyrazol-1-yl)-2-((5-(p-tolylamino)-1,3,4-thiadiazol-2-yl)thio)ethan-1-one] | 29.1 ± 1.01 µM | >3.44 | 92.6 ± 1.89 µM | >1.08 | > 100 µM | – | – | – | – | – | – |
| COc1ccc(Nc2nnc(SCC(=O)N3N=C(c4ccccc4)CC3c3ccc([N+](=O)[O-])cc3)s2)cc1 (stereo not drawn) [Compound 6i, 2-((5-((4-Methoxyphenyl)amino)-1,3,4-thiadiazol-2-yl)thio)-1-(5-(4-nitrophenyl)-3-phenyl-4,5-dihydro-1H-pyrazol-1-yl)ethan-1-one] | 16.6 ± 0.21 µM | >6.01 | > 100 µM | – | > 100 µM | – | – | – | – | – | – |
| O=C(CSc1nnc(Nc2ccc(Cl)cc2)s1)N1N=C(c2ccccc2)CC1c1ccc([N+](=O)[O-])cc1 (stereo not drawn) [Compound 6j, 2-((5-((4-Chlorophenyl)amino)-1,3,4-thiadiazol-2-yl)thio)-1-(5-(4-nitrophenyl)-3-phenyl-4,5-dihydro-1H-pyrazol-1-yl)ethan-1-one] | 8.49 ± 0.667 µM | 5.68 | 67.2 ± 3.63 µM | 0.72 | 48.3 ± 1.72 µM | 8.49 ± 0.67 µM | 67.2 ± 3.63 µM | – | – | – | – |
| COc1cccc2c1C(=O)c1c(O)c3c(c(O)c1C2=O)C[C@@](O)(C(=O)CO)C[C@@H]3O[C@H]1C[C@H](N)[C@H](O)[C@H](C)O1 [doxorubicin, reference compound] | 2.67 ± 0.12 µM | >374.95 | 1.59 ± 0.1 µM | >629.33 | > 1000 µM | – | – | – | – | 30.27% | – |
